{
  "source": "paper PMC10351190",
  "about": "“Isolation and identification of active ingredients and biological activity of Dioscorea nipponica Makino” (BMC Complementary Medicine and Therapies, 2023)",
  "target": "T1, α-glucosidase",
  "T1 construct": "gene MAL12",
  "test": "pNPG hydrolysis, absorbance […] nm",
  "format": "biochemical",
  "settings": "pNPG substrate ([…] stock), pH […] °C, […] phosphate",
  "data": [
    {"compound": "COc1c(O)cc(C[C@H](O)c2ccccc2)c(C(=O)O)c1O", "note": "[compound 1, diosniposide E]", "values": [
      {"measurement": "IC50", "value": "> 800", "unit": "µM"}
    ]},
    {"compound": "O=C(O)c1c(O)cc(O)cc1C[C@H](O)c1ccccc1", "note": "[compound 2, diosniponol C]", "values": [
      {"measurement": "IC50", "value": "> 800", "unit": "µM"}
    ]},
    {"compound": "O=C(/C=C/C=C/c1ccc(O)cc1)CCc1ccc(O)cc1", "note": "[compound 3, 1,7-bis(4-hydroxyphenyl)hepta-4E,6E-dien-3-one]", "values": [
      {"measurement": "IC50", "value": "1.6 ± 0.17", "unit": "µM"}
    ]},
    {"compound": "COc1cc2c(ccc3cc(O)cc(OC)c32)cc1O", "note": "[compound 4, 3,5-dimethoxyphenanthrene-2,7-diol]", "values": [
      {"measurement": "IC50", "value": "31.4 ± 0.18", "unit": "µM"}
    ]},
    {"compound": "O=C(O)c1cc(O)c(O)c(O)c1", "note": "[compound 5, gallic acid]", "values": [
      {"measurement": "IC50", "value": "> 800", "unit": "µM"}
    ]},
    {"compound": "COC(=O)c1cc(O)c(O)c(O)c1", "note": "[compound 6, methyl gallate]", "values": [
      {"measurement": "IC50", "value": "> 800", "unit": "µM"}
    ]},
    {"compound": "COc1cc(C(=O)O)ccc1O", "note": "[compound 7, vanillic acid]", "values": [
      {"measurement": "IC50", "value": "> 800", "unit": "µM"}
    ]},
    {"compound": "COc1cc2c(ccc3c(-c4c(O)cc(OC)c5c4ccc4cc(O)c(OC)cc45)c(O)cc(OC)c32)cc1O", "note": "[compound 8, 2,2',7,7'-tetrahydroxy-4,4',6,6'-tetramethoxy-1,1'-biphenanthrenes]", "values": [
      {"measurement": "IC50", "value": "> 800", "unit": "µM"}
    ]},
    {"compound": "O=c1cc(-c2ccc(O)cc2)oc2cc(O)cc(O)c12", "note": "[compound 9, apigenin]", "values": [
      {"measurement": "IC50", "value": "> 800", "unit": "µM"}
    ]}
  ]
}
